Format in all cases: functional
For test [1], the system named is Plasmopara viticola. Put plainly: The fungicidal activity (percent disease control) under greenhouse conditions against Grape downy mildew (Plasmopara viticola) at 40 ppm.
For test [2], the system named is Botrytis cinerea. Put plainly: Fungicidal activity (under greenhouse conditions against Cucumber botrytis (Botrytis cinerea) at 200 ppm.
The subject of test [3] is Oculimacula yallundae. Kind of test: Fungicidal activity under greenhouse conditions against Wheat foot rot (Pseudocercosporella herpotrichoides) at 200 ppm.
The subject of test [4] is Puccinia recondita. Put plainly: Fungicidal activity under greenhouse conditions against Wheat leaf rust (Puccinia recondita) at 200 ppm.
Test [5] deals with Parastagonospora nodorum. Kind of test: The fungicidal activity (percent disease control) under greenhouse conditions against Wheat septoria (Septoria nodorum) at 200 ppm.
The test system of test [6] is Phytophthora infestans. Kind of test: Fungicidal activity under greenhouse conditions against Tomato late blight (Phtyopthora infestans) at 200 ppm.
Test [7] relates to Thanatephorus cucumeris. Kind of test: Fungicidal activity under greenhouse conditions against Rice sheath blight (Rhizoctonia solani) at 200 ppm.
Test [8] has as its system Pyricularia grisea. Put plainly: Fungicidal activity under greenhouse conditions against Rice blast (Pyricularia oryzae) at 200 ppm.
Test [9] concerns Blumeria graminis. Put plainly: Fungicidal activity under greenhouse conditions against Wheat powdery mildew (Erisyphe graminis) at 200 ppm at 200 ppm.
Test [10] relates to Parastagonospora nodorum. Put plainly: The fungicidal activity (percent disease control) under greenhouse conditions against Wheat septoria (Septoria nodorum) at 40 ppm; shows curative effect.
The test system of test [11] is Blumeria graminis. Put plainly: The fungicidal activity (percent disease control) under greenhouse conditions against Wheat powdery mildew (Erisyphe graminis) at 200 ppm at 200 ppm; shows curative effect.
Test [12] relates to Parastagonospora nodorum. Kind of test: The fungicidal activity (percent disease control) under greenhouse conditions against Wheat septoria (Septoria nodorum) at 40 ppm.
Test [13] has as its system Plasmopara viticola. Kind of test: The fungicidal activity (percent disease control) under greenhouse conditions against Grape downy mildew (Plasmopara viticola) at 200 ppm.
Test [14] relates to Puccinia recondita. Kind of test: The fungicidal activity (percent disease control) under greenhouse conditions against Wheat leaf rust (Puccinia recondita) at 40 ppm; shows curative effect.
The test system of test [15] is Pyricularia grisea. Kind of test: The fungicidal activity (percent disease control) under greenhouse conditions against Rice blast (Pyricularia oryzae) at 200 ppm; shows curative effect.
The subject of test [16] is Puccinia recondita. Kind of test: The fungicidal activity (percent disease control) under greenhouse conditions against Wheat leaf rust (Puccinia recondita) at 200 ppm; shows curative effect.
The subject of test [17] is Parastagonospora nodorum. Kind of test: The fungicidal activity (percent disease control) under greenhouse conditions against Wheat septoria (Septoria nodorum) at 200 ppm; shows curative effect.
The subject of test [18] is Oculimacula yallundae. Kind of test: The fungicidal activity (percent disease control) under greenhouse conditions against Wheat foot rot (Pseudocercosporella herpotrichoides) at 40 ppm.
Test [19] relates to Blumeria graminis. Kind of test: The fungicidal activity (percent disease control) under greenhouse conditions against Wheat powdery mildew (Erisyphe graminis) at 40 ppm […].
Test [20] deals with Botrytis cinerea. Kind of test: The fungicidal activity (percent disease control) under greenhouse conditions against Cucumber botrytis (Botrytis cinerea) at 40 ppm.
In test [21] the test system is Puccinia recondita. Kind of test: The fungicidal activity (percent disease control) under greenhouse conditions against Wheat leaf rust (Puccinia recondita) at 40 ppm.
For test [22], the system named is Blumeria graminis. Kind of test: The fungicidal activity (percent disease control) under greenhouse conditions against Wheat powdery mildew (Erisyphe graminis) at 40 ppm; shows curative effect.

Turning to `COc1ccc(-c2ccc(-c3ccccn3)nc2)cc1`, the Disease control in [1] stood at 65%; in [2], 0%; in test [3], 75%; in test [4] it was 93%; in test [5], 40%; in test [6] it was 0%. The Disease control in test [7] was 19%; in test [8] it was 97%; in [9], 92%.
Consider `Brc1ccc(-c2ccc(-c3ccccn3)nc2)cc1`, for which the Disease control in test [2] came to 0%; in test [3] it was 0%; in [4], 20%; in [10], 58%; in test [6], 0%; in test [7], 0%. The results for the Disease control in test [11] and in [8] were 19% and 0%, respectively.
Regarding `CCCCc1ccnc(-c2cc(CCCC)ccn2)c1`, the Disease control in test [2] came to 0%; in [3] it was 44%; in test [4], 33%; in test [6], 0%; in [7] it was 93%; in test [8], 85%. The compound further had a Disease control in test [9] of 21%.
Consider `COc1ccccc1-c1ccnc(-c2ccccn2)c1`, for which the Disease control in test [2] was determined as 0%; in test [3], 0%; in test [4], 85%; in test [12] it was 27%; in test [6] it was 24%; in test [7] it was 0%. Further, the Disease control in test [11] turned out to be 93%; in test [8], 32%.
As to `O=[N+]([O-])c1ccc(-c2ccc(-c3ccccn3)nc2)cc1`, the Disease control was 60% in test [13]; 0% in test [2]; 0% in test [3]; 0% in test [4]; 0% in test [5]; 0% in test [6]. Also, the Disease control in test [7], in [8] and in [9] was 0% each time.
In the case of `CCCCCc1ccnc(-c2cc(CCCCC)ccn2)c1`, the Disease control in [2] is on record as 0%; in test [3], 0%; in [4], 90%; in [6], 0%; in [7], 93%; in test [8] it was 27%. Further, the Disease control in [9] amounted to 92%.
Regarding `c1ccc(-c2ccc(-c3ccccn3)nc2)cc1`, the Disease control is given as 96% in test [13]; 45% in test [2]; 0% in test [3]; 60% in test [14]; 100% in test [5]; 87% in [15]. Also, the Disease control was determined as 23% in test [6], 0% in test [7] and 100% in [11].
As for `Cc1ccc(-c2ccc(-c3ccccn3)nc2)cc1`, the Disease control was found to be 84% in test [16]; 59% in test [2]; 0% in [3]; 95% in [17]; 0% in test [6]; 0% in [7]. For the same compound, the Disease control came out at 99% in test [11] and 32% in [8].
Turning to `c1ccc(-c2ccnc(-c3ccccn3)c2)cc1`, the Disease control in test [13] worked out at 96%; in test [2], 0%; in test [3], 0%; in test [14] it was 11%; in test [10], 94%; in test [6], 0%. Besides, the Disease control is reported as 0% in test [7], 95% in test [11] and 74% in test [8].
On to `c1ccc(OCc2ccc(-c3ccccn3)nc2)cc1`, for which the Disease control in [2], in [3], in test [4], in [5], in test [6] and in test [7] was 0% in each case. In addition, the Disease control in test [8] is reported as 0%; in test [9], 11%.
As to `Cc1ccc(-c2ccccn2)nc1`, the Disease control in [13], in test [2], in [3], in [4], in test [5] and in test [6] was 0% throughout. Further, the Disease control in [7] worked out at 0%; in test [8], 0%; in test [9], 24%.
Take `CCCCCCCCCCCCc1ccnc(-c2cc(CCCCCCCCCCCC)ccn2)c1`: the Disease control in test [2], in test [3], in [6], in test [7], in test [8] and in test [9] was 0% in each case.
Take `Cc1ccnc(-c2cc(-c3ccccc3)ccn2)c1`: the Disease control in test [2] turned out to be 30%; in test [3], 66%; in test [4], 99%; in test [10], 19%; in test [6], 0%; in [7], 81%. In addition, the Disease control in test [8] is on record as 53%; in test [9], 99%.
In the case of `Clc1ccc(-c2ccc(-c3ccccn3)nc2)cc1`, the Disease control in test [1] came to 50%; in test [2], 0%; in test [3] it was 81%; in test [4], 65%; in [5], 98%; in test [6] it was 0%. Besides, the values for the Disease control in test [7], in test [11] and in test [8] were 100%, 99% and 97%, respectively.
For the compound `O=[N+]([O-])c1ccccc1-c1ccnc(-c2ccccn2)c1`, the Disease control in test [2] came out at 41%; in test [3], 0%; in test [4] it was 67%; in [10], 76%; in test [6], 24%; in test [7] it was 0%. In addition, the Disease control in [8] was 32%; in test [9], 0%.
`Fc1ccc(-c2ccc(-c3ccccn3)nc2)cc1`: the Disease control in test [2] worked out at 0%; in test [4] it was 64%; in test [10] it was 32%; in test [18], 27%; in [6] it was 24%; in test [7] it was 100%. The Disease control in [11] is 55%; in [8], 32%.
With `Cc1ccnc(-c2ccc(-c3ccccc3)cn2)c1`, the Disease control in test [3] is given as 69%; in test [4], 93%; in [10] it was 96%; in test [19], 47%; in test [6], 0%; in test [7], 0%. The figures for the Disease control in test [20] and in test [8] were 28% and 32%, respectively.
For `CC(C)c1ccnc(-c2cc(C(C)C)ccn2)c1`, the Disease control stood at 0% in [2]; 12% in test [3]; 0% in test [6]; 73% in test [7]; 67% in test [8]; 38% in [9].
As to `COc1ccccc1-c1ccnc(-c2cc(C)ccn2)c1`, the Disease control in test [2] is listed as 0%; in test [3] it was 86%; in test [10] it was 12%; in test [21], 19%; in [6], 0%; in test [7] it was 81%. Moreover, the Disease control came to 30% in test [22] and 53% in test [8].

(Values after ChEMBL document CHEMBL1128660, “Synthesis and fungicidal activity of 2,2-bipyridine derivatives” (1995).)
